Patent US20240374591A1, “CEREBLON BINDING COMPOUNDS, COMPOSITIONS THEREOF, AND METHODS OF TREATMENT THEREWITH” (CELGENE CORPORATION, priority 2021, published 2024)

Molecular target: T1, AR in VCaP cells (Homo sapiens, UniProt P10275)
T1 construct: endogenous in cells; host or cells: VCaP cells
T1 sequence (P10275 1-920): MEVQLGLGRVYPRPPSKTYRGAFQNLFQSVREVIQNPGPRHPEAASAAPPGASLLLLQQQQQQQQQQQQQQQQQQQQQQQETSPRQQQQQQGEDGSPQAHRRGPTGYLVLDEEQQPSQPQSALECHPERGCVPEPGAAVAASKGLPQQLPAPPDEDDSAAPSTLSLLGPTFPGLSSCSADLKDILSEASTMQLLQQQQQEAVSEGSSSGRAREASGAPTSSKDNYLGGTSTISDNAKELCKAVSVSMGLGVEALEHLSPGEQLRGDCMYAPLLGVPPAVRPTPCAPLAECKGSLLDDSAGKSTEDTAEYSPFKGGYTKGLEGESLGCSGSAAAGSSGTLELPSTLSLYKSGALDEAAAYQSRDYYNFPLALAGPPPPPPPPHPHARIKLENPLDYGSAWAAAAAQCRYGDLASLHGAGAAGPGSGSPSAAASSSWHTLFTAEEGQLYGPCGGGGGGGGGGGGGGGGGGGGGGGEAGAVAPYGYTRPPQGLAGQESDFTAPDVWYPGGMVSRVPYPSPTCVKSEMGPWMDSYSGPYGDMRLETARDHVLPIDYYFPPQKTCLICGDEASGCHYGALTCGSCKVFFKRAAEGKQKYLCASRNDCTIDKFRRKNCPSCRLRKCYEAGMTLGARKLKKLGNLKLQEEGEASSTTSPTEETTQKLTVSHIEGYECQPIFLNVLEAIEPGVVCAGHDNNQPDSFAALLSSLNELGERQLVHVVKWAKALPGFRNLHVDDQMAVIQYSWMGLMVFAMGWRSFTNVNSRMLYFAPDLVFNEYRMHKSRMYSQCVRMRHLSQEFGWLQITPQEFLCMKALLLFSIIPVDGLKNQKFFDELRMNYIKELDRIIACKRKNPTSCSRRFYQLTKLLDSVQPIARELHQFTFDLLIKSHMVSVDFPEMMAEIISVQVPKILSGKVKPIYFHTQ
Assay: VCAP AR Degradation Assay (AR ELISA, 24 h)
Format: cell-based
Conditions: for DC50: concentration giving 50% AR degradation vs DMSO control; for remaining activity at up to 5 µM: lowest measured AR level normalized to DMSO control, top concentration 5 μM, read-out: Y
Procedure: VCAP AR Degradation Assay. Test compounds were pre-dispensed into a Corning CellBind 96-well clear bottom plate (Cat #3300) using an acoustic dispenser to make a 10-point concentration series at 1:3 dilution for each compound. The final top concentration of each compound was 5 μM. DMSO at a final concentration of 0.1% was used as a control. VCaP cells cultured in DMEM with 8% fetal bovine serum (FBS) were seeded at 50K cells per well in a 200 μL volume into the compound plate and incubated at 37° C. in a CO2 incubator for 24 h. The medium was carefully removed from the cells and the plate was placed on ice. One hundred μL of ice-cold 1× cell lysis buffer from Cell Signaling Technologies (Cat #9803) was added to each well of the cells and the plate was incubated at 4° C. on a shaker for 1 h. Fifteen μL of cell lysate was used for AR ELISA detection using a PathScan Total Sandwich AR ELISA kit (Cell Signaling Technology, Cat #12580). AR levels in compound-treated wells were normalized to that of DMSO control and expressed as percent of control (PoC) (y). A Four Parameter Logistic Model (Sigmoidal Dose-Response Model) was used to determine the compound's DC50, and EC50, using the following equation: […]
The lowest measured AR level normalized to DMSO control in response to compound treatment, termed Y value, was used to characterize the compound-mediated AR degradation efficiency.

Structure (SMILES)	DC50 [nM]	remaining activity at up to 5 µM [%]
C[C@@H]1C[C@H](OCCC[C@H]2CC[C@H](N3C(=S)N(c4cnc(C#N)c(C(F)(F)F)c4)C(=O)C3(C)C)CC2)C[C@H](C)N1CC(=O)Nc1ccc(C2CCC(=O)NC2=O)nc1 (stereo partly drawn) [Cmpd 26, 2-((2R,4r,6S)-4-(3-((trans)-4-(3-(6-Cyano-5-(trifluoromethyl)pyridin-3-yl)-5,5-dimethyl-4-oxo-2-thioxoimidazolidin-1-yl)cyclohexyl)propoxy)-2,6-dimethylpiperidin-1-yl)-N-(6-(2,6-dioxopiperidin-3-yl)pyridin-3-yl)acetamide]	≤ 5	0 to 20
C[C@@H]1C[C@H](OCC[C@H]2CC[C@H](N3C(=S)N(c4ccc(C#N)c(C(F)(F)F)c4)C(=O)C3(C)C)CC2)C[C@H](C)N1CC(=O)Nc1ccc(C2CCC(=O)NC2=O)nc1 (stereo partly drawn) [Cmpd 27, 2-((2R,4r,6S)-4-(2-((trans)-4-(3-(4-Cyano-3-(trifluoromethyl)phenyl)-5,5-dimethyl-4-oxo-2-thioxoimidazolidin-1-yl)cyclohexyl)ethoxy)-2,6-dimethylpiperidin-1-yl)-N-(6-(2,6-dioxopiperidin-3-yl)pyridin-3-yl)acetamide]	5 to 10	20 to 30
C[C@@H]1C[C@H](OCC[C@H]2CC[C@H](N3C(=S)N(c4cnc(C#N)c(C(F)(F)F)c4)C(=O)C3(C)C)CC2)C[C@H](C)N1CC(=O)Nc1ccc(C2CCC(=O)NC2=O)nc1 (stereo partly drawn) [Cmpd 28, 2-((2R,4r,6S)-4-(2-((trans)-4-(3-(6-Cyano-5-(trifluoromethyl)pyridin-3-yl)-5,5-dimethyl-4-oxo-2-thioxoimidazolidin-1-yl)cyclohexyl)ethoxy)-2,6-dimethylpiperidin-1-yl)-N-(6-(2,6-dioxopiperidin-3-yl)pyridin-3-yl)acetamide]	≤ 5	20 to 30
C[C@@H]1C[C@H](OCCO[C@H]2CC[C@H](N3C(=S)N(c4ccc(C#N)c(C(F)(F)F)c4)C(=O)C3(C)C)CC2)C[C@H](C)N1CC(=O)Nc1ccc(C2CCC(=O)NC2=O)nc1 (stereo partly drawn) [Cmpd 29, 2-((2R,4r,6S)-4-(2-(((trans)-4-(3-(4-Cyano-3-(trifluoromethyl)phenyl)-5,5-dimethyl-4-oxo-2-thioxoimidazolidin-1-yl)cyclohexyl)oxy)ethoxy)-2,6-dimethylpiperidin-1-yl)-N-(6-(2,6-dioxopiperidin-3-yl)pyridin-3-yl)acetamide]	≤ 5	20 to 30
C[C@@H]1C[C@H](OCCO[C@H]2CC[C@H](N3C(=S)N(c4cnc(C#N)c(C(F)(F)F)c4)C(=O)C3(C)C)CC2)C[C@H](C)N1CC(=O)Nc1ccc(C2CCC(=O)NC2=O)nc1 (stereo partly drawn) [Cmpd 30, 2-((2R,4r,6S)-4-(2-(((trans)-4-(3-(6-Cyano-5-(trifluoromethyl)pyridin-3-yl)-5,5-dimethyl-4-oxo-2-thioxoimidazolidin-1-yl)cyclohexyl)oxy)ethoxy)-2,6-dimethylpiperidin-1-yl)-N-(6-(2,6-dioxopiperidin-3-yl)pyridin-3-yl)acetamide]	≤ 5	0 to 20
CC1(C)C(=O)N(c2ccc(C#N)c(C(F)(F)F)c2)C(=S)N1[C@H]1CC[C@H](OCCC2CCN(CC(=O)Nc3ccc(C4CCC(=O)NC4=O)nc3)CC2(F)F)CC1 (stereo partly drawn) [Cmpd 31, 2-(4-(2-(((trans)-4-(3-(4-Cyano-3-(trifluoromethyl)phenyl)-5,5-dimethyl-4-oxo-2-thioxoimidazolidin-1-yl)cyclohexyl)oxy)ethyl)-3,3-difluoropiperidin-1-yl)-N-(6-(2,6-dioxopiperidin-3-yl)pyridin-3-yl)acetamide]	≤ 5	0 to 20
CC1(C)C(=O)N(c2cnc(C#N)c(C(F)(F)F)c2)C(=S)N1[C@H]1CC[C@H](OCCC2CCN(CC(=O)Nc3ccc(C4CCC(=O)NC4=O)nc3)CC2(F)F)CC1 (stereo partly drawn) [Cmpd 32, 2-(4-(2-(((trans)-4-(3-(6-Cyano-5-(trifluoromethyl)pyridin-3-yl)-5,5-dimethyl-4-oxo-2-thioxoimidazolidin-1-yl)cyclohexyl)oxy)ethyl)-3,3-difluoropiperidin-1-yl)-N-(6-(2,6-dioxopiperidin-3-yl)pyridin-3-yl)acetamide]	≤ 5	0 to 20
